In assay [1] the target is T1, SARS-CoV-2 PLpro (nsp3 1564–1878) (Severe acute respiratory syndrome coronavirus 2, UniProt P0DTD1). As to the kind of experiment: biochemical. Further details: FRET-quenched peptide (Pro3) cleavage by PLpro, 10 min pre-incubation, slope over 20 min, normalised to no-compound control. Conditions: low concentration screen, read-out: % of control remaining.
In assay [2] the target is T1, SARS-CoV-2 PLpro (nsp3 1564–1878). As to the kind of experiment: biochemical. Further details: FRET-quenched peptide (Pro3) cleavage by PLpro, 10 min pre-incubation, slope over 20 min, normalised to no-compound control. The conditions noted are these: high concentration screen, read-out: % of control remaining.

Each structure is given as a SMILES string. Structures can show the parent of a compound that is named as a salt. Where two headings read alike, the source gives them in different places.

`CCCN1C[C@H](CSC)C[C@@H]2c3cccc4[nH]cc(c34)C[C@H]21` [Pergolide mesylate]: the remaining activity at 1.25 µM in assay [1] (Well no.=1602) was determined as 94.9%. In addition, the remaining activity at 3.75 µM in assay [2] (Well no.=1602) was 97.1%.
Consider `CCCN1C[C@H](CSC)C[C@@H]2c3cccc4[nH]cc(c34)C[C@H]21` [Pergolide methanesulfonate], for which the remaining activity at 1.25 µM in assay [1] (Well no.=1257) was 112%. The remaining activity at 3.75 µM in assay [2] (Well no.=1257) was determined as 111%.
For `C1CCC(C(CC2CCCCN2)C2CCCCC2)CC1` (stereo not shown) [Perhexiline maleate salt], the remaining activity at 1.25 µM in assay [1] (Well no.=5958) worked out at 97.2%. The remaining activity at 3.75 µM in assay [2] (Well no.=5958) turned out to be 95.4%.
With `C=C(C)[C@@H]1CC=C(C(=O)O)CC1` [Perillic acid], the remaining activity at 1.25 µM in assay [1] (Well no.=3429) stood at 93.1%. For the same compound, in assay [2] (Well no.=3429), the remaining activity at 3.75 µM came out at 93.2%.
In the case of `CCC[C@H](N[C@@H](C)C(=O)N1[C@H](C(=O)O)C[C@@H]2CCCC[C@@H]21)C(=O)OCC` [Perindopril (erbumine)], the remaining activity at 1.25 µM in assay [1] (Well no.=8070) stood at 106%. Besides, the remaining activity at 3.75 µM in assay [2] (Well no.=8070) is 102%.
Turning to `CCC[C@H](N[C@@H](C)C(=O)N1[C@H](C(=O)O)C[C@@H]2CCCC[C@@H]21)C(=O)OCC` [Perindopril Erbumine], the remaining activity at 1.25 µM in assay [1] (Well no.=8778) stood at 89.7%. Also, in assay [2] (Well no.=8778), the remaining activity at 3.75 µM is 84.8%.
Consider `OCCN1CCN(CCCN2c3ccccc3Sc3ccc(Cl)cc32)CC1` [Perphenazine], for which the remaining activity at 1.25 µM in assay [1] (Well no.=1006) came out at 98.7%; in assay [1] (Well no.=6319) it was 104%. In addition, the results for the remaining activity at 3.75 µM in assay [2] (Well no.=1006) and in assay [2] (Well no.=6319) were 99.2% and 99.7%, respectively.
`CO[C@H]1[C@H](O)[C@H](O[C@H]2CC[C@@]3(C=O)[C@H](CC[C@@H]4[C@@H]3CC[C@]3(C)[C@@H](C5=CC(=O)OC5)CC[C@]43O)C2)O[C@@H](C)[C@@H]1O` [Peruvoside]: the remaining activity at 1.25 µM in assay [1] (Well no.=3687) was found to be 97.8%. Moreover, in assay [2] (Well no.=3687), the remaining activity at 3.75 µM was 102%.
Regarding `NCC(CP(=O)(O)O)c1ccc(Cl)cc1` (stereo not shown) [Phaclofen], the remaining activity at 1.25 µM in assay [1] (Well no.=1167) came out at 103%. Moreover, in assay [2] (Well no.=1167), the remaining activity at 3.75 µM was found to be 104%.
Consider `CCOc1ccc(NC(C)=O)cc1` [Phenacetin], for which the remaining activity at 1.25 µM in assay [1] (Well no.=4948) amounted to 98.7%. The remaining activity at 3.75 µM in assay [2] (Well no.=4948) turned out to be 93.7%.
Take `N=C(NC(=O)c1nc(Cl)c(N)nc1N)Nc1ccccc1` [Phenamil methanesulfonate]: the remaining activity at 1.25 µM in assay [1] (Well no.=1313) amounted to 101%. Further, the remaining activity at 3.75 µM in assay [2] (Well no.=1313) was 99.6%.
Take `NNCCc1ccccc1` [Phenelzine sulfate]: the remaining activity at 1.25 µM in assay [1] (Well no.=1203) came out at 99.6%. In assay [2] (Well no.=1203), the remaining activity at 3.75 µM was 98.7%.
Consider `N=C(N)NC(=N)NCCc1ccccc1` [Phenformin HCl], for which the remaining activity at 1.25 µM in assay [1] (Well no.=4908) was found to be 100%. For the same compound, the remaining activity at 3.75 µM in assay [2] (Well no.=4908) was found to be 98.5%.
For the compound `O=C1CCN(c2ccccc2)N1` [Phenidone], the remaining activity at 1.25 µM in assay [1] (Well no.=3951) was 103%. Besides, the remaining activity at 3.75 µM in assay [2] (Well no.=3951) stood at 101%.
`CN(C)CCC(c1ccccc1)c1ccccn1` (stereo not shown) [Pheniramine (Maleate)]: the remaining activity at 1.25 µM in assay [1] (Well no.=6799) stood at 99.4%. In assay [2] (Well no.=6799), the remaining activity at 3.75 µM was determined as 90%.
`CC(COc1ccccc1)N(CCCl)Cc1ccccc1` (stereo not shown) [Phenoxybenzamine (hydrochloride)]: the remaining activity at 1.25 µM in assay [1] (Well no.=6797) was 99.8%. In assay [2] (Well no.=6797), the remaining activity at 3.75 µM turned out to be 93.2%.
Regarding `CC(COc1ccccc1)N(CCCl)Cc1ccccc1` (stereo not shown) [Phenoxybenzamine hydrochloride], the remaining activity at 1.25 µM in assay [1] (Well no.=371) is 95.1%. Also, the remaining activity at 3.75 µM in assay [2] (Well no.=371) is 91.2%.
As for `CC(COc1ccccc1)N(CCCl)Cc1ccccc1` (stereo not shown) [Phenoxybenzamine.HCl], the remaining activity at 1.25 µM in assay [1] (Well no.=1761) stood at 102%. For the same compound, the remaining activity at 3.75 µM in assay [2] (Well no.=1761) was 101%.
For the compound `CN1CC[C@@]2(C)c3cc(OC(=O)Nc4ccccc4)ccc3N(C)[C@@H]12` [Phenserine], the remaining activity at 1.25 µM in assay [1] (Well no.=6093) worked out at 90.2%. Also, the remaining activity at 3.75 µM in assay [2] (Well no.=6093) came to 89.8%.
For the compound `Cc1ccc(N(CC2=NCCN2)c2cccc(O)c2)cc1` [Phentolamine (mesylate)], in assay [1] (Well no.=7326), the remaining activity at 1.25 µM amounted to 93.7%. Further, in assay [2] (Well no.=7326), the remaining activity at 3.75 µM amounted to 90%.
For `Cc1ccc(N(CC2=NCCN2)c2cccc(O)c2)cc1` [Phentolamine mesylate], in assay [1] (Well no.=1253), the remaining activity at 1.25 µM was 104%. Also, the remaining activity at 3.75 µM in assay [2] (Well no.=1253) is 106%.
Take `Cc1ccc(N(CC2=NCCN2)c2cccc(O)c2)cc1` [Phentolamine]: the remaining activity at 1.25 µM in assay [1] (Well no.=1635) was determined as 105%. The remaining activity at 3.75 µM in assay [2] (Well no.=1635) is 105%.
Consider `NC(Cc1cccc(-c2ccccc2CP(=O)(O)O)c1)C(=O)O` (stereo not drawn) [Phenylbenzene-omega-phosphono-alpha-amino acid], for which the remaining activity at 1.25 µM in assay [1] (Well no.=1361) was 100%. Besides, the remaining activity at 3.75 µM in assay [2] (Well no.=1361) is 100%.
`CCCCC1C(=O)N(c2ccccc2)N(c2ccccc2)C1=O` [Phenylbutazone]: the results for the remaining activity at 1.25 µM in assay [1] (Well no.=1303) and in assay [1] (Well no.=2105) were 102% and 101%, respectively. Moreover, the remaining activity at 3.75 µM was found to be 99.3% in assay [2] (Well no.=1303) and 101% in assay [2] (Well no.=2105).
As for `CNC[C@H](O)c1cccc(O)c1` [Phenylephrine hydrochloride], the remaining activity at 1.25 µM in assay [1] (Well no.=958) is 101%. Also, in assay [2] (Well no.=958), the remaining activity at 3.75 µM stood at 103%.
In the case of `C[C@H](N)[C@H](O)c1ccccc1` [Phenylpropanolamine], in assay [1] (Well no.=2292), the remaining activity at 1.25 µM was 96.7%. Moreover, the remaining activity at 3.75 µM in assay [2] (Well no.=2292) was determined as 97.2%.
`O=C1N=C(O)NC1(c1ccccc1)c1ccccc1` [Phenytoin sodium]: the remaining activity at 1.25 µM in assay [1] (Well no.=403) was determined as 104%. For the same compound, the remaining activity at 3.75 µM in assay [2] (Well no.=403) is 104%.
For the compound `O=C1NC(=O)C(c2ccccc2)(c2ccccc2)N1` [Phenytoin], the remaining activity at 1.25 µM in assay [1] (Well no.=1643) is 99.6%. Moreover, in assay [2] (Well no.=1643), the remaining activity at 3.75 µM was 100%.
Regarding `CCn1c2ccccc2c2cc(CNC)ccc21` [PhiKan 083], in assay [1] (Well no.=6830), the remaining activity at 1.25 µM was found to be 93.5%. The remaining activity at 3.75 µM in assay [2] (Well no.=6830) worked out at 93.9%.
With `O=C(CCc1ccc(O)cc1)c1c(O)cc(O)cc1O` [Phloretin], the remaining activity at 1.25 µM in assay [1] (Well no.=1397) came out at 102%; in assay [1] (Well no.=3821), 95.3%. Also, the remaining activity at 3.75 µM was found to be 102% in assay [2] (Well no.=1397) and 94.8% in assay [2] (Well no.=3821).
With `O=C(CCc1ccc(O)cc1)c1c(O)cc(O)cc1O[C@@H]1O[C@H](CO)[C@@H](O)[C@H](O)[C@H]1O` [Phlorizine], the remaining activity at 1.25 µM in assay [1] (Well no.=3452) worked out at 94.2%. The remaining activity at 3.75 µM in assay [2] (Well no.=3452) was 97.9%.
Regarding `CCCC(=O)O[C@@H]1[C@@H](C)[C@@]2(O)[C@@H](C=C(CO)C[C@]3(O)C(=O)C(C)=C[C@@H]23)[C@@H]2C(C)(C)[C@]12OC(=O)CCC` [Phorbol 12,13-dibutyrate], the remaining activity at 1.25 µM in assay [1] (Well no.=3487) is 97.7%. The remaining activity at 3.75 µM in assay [2] (Well no.=3487) is 100%.

The values are drawn from publication PMC8286840, “Identifying SARS-CoV-2 antiviral compounds by screening for small molecule inhibitors of Nsp3 papain-like protease” (Biochemical Journal, 2021).
